Measured values taken from US20160304957A1, “TREATMENT AND MODULATION OF GENE EXPRESSION AND SKIN AGING” (DSM NUTRITIONAL PRODUCTS LTD., priority 2006, published 2016).

What was measured:
TIMP-1 = assay: ELISA of TIMP-1 release into cell culture supernatant of HaCaT cells; assay type: cell-based, human; conditions: β-carotene, with or without UVA
Description: HaCaT cells were supplemented with 0.5, 1.5, or 3 μM β-carotene for 2 days prior to UVA (270 kJ/m^2) irradiation. MMP-1 and TIMP-1 secretion 24 hours after irradiation was analyzed by ELISA. Each condition was represented by three replicates in the experiment. Values are means±standard error.
Release of MMP-1, and TIMP-1 into cell culture supernatant was determined by ELISA at 24 hours after irradiation. MMP-1 and TIMP-1 release was measured using MMP-1 and TIMP ELISA from CALBIOCHEM (San Diego, Calif., USA). The ELISAs were performed according to the manufacturer's instructions.

photosensitization = conditions: EPP patients, 180 mg/d; cited from earlier work
RXRα = assay: QRT-PCR gene expression in HaCaT cells with or without UVA; assay type: cell-based, human
Description: (§1) HaCaT cells were obtained from Prof. Fusenig, German Cancer Research Centre, Heidelberg. […] The accuracy of cell counting was approximately 99%.
(§2) On day 3 of the experiment, cells were washed six times with Ca/Mg-free PBS containing 2% BSA, and then irradiated with light with a Hönle sun lamp Sol 500 (Dr. Hönle, Plannegg, Germany) at a dose of 270 kJ/m^2 in Ca/Mg-free PBS (2 hour exposure time at […]). The experimental schedule was chosen because the cells had optimal UVA sensitivity after 48 hours in culture. […] Confluent cultures were much less sensitive to irradiation.
(§3) After irradiation, the cells were supplied with fresh β-carotene-containing serum-free medium and kept in the incubator at 37° C., 5% CO2 until harvest of the samples. In experiments in which the half-life of ^1O2 was prolonged by D2O to enhance its effect, PBS was prepared in D2O, instead of in H2O, as it was done for the standard conditions described above. Cells were washed twice in D2O-PBS prior to irradiation in D2O-PBS. After irradiation, cells were maintained with fresh β-carotene-containing serum-free medium. Sham controls were treated in an identical manner, by placing them under the solar simulator but shielded from light.
(§4) Total RNA was isolated by using Trizol™ (Invitrogen, Basel, Switzerland) according to the instructions of the manufacturer. Random-primed cDNA was synthesized using the Superscript pre-amplification system for first strand cDNA synthesis (Invitrogen).
(§5) cDNA corresponding to 10 ng total RNA was used as template to quantify the relative RNA expression of the genes of interest by TaqMan® real time PCR.
(§6) The PCR analyses were carried out in triplicate and in a multiplex setup, using 18S rRNA as a calibrator gene. The rRNA primers were used at a final concentration of 50 nM, the probe at 100 nM. For quantification of the genes of interest, the primer concentrations were optimized for sensitivity of template detection. […] PCR reactions were carried out for 40 cycles of 95° C. for 15 seconds and 60° C. for 1 minute in an ABI7700 (Applied Biosystems, Rotkreuz, Switzerland). Regulation of gene expression was calculated as described in user bulletin #2 provided by the manufacturer. A threshold cycle (“CT”) is the first PCR cycle in which an amplification signal is detected. Expression levels are given as δCT values. The δCT value describes the level of gene expression as the average PCR cycle, in which the gene of interest was detected first (CT value), subtracted by the CT value of the calibrator gene 18S rRNA (CTgene of interest−CTcalibrating gene), 18S rRNA served as a measure for the amount of template in the reaction. Routinely, 18S rRNA was detected between PCR cycle 12 and 13 (SE=standard error) A low δCT corresponds to a high mRNA level.
(§7) HaCaT cells were pretreated for 2 days with 0.5, 1.5 or 3 μM β-carotene. The cells were irradiated with UVA (270 kJ/m^2) either in D2O-containing PBS or in H2O-containing PBS, to analyze ^1O2 inducibility of genes. Gene expression 5 hours after UVA irradiation was analyzed by QRT-PCR. Values are geometric means±standard error from three independent experiments. Upregulations greater than 1.5-fold are labelled in bold black, downregulations below 0.66-fold are bold grey.

RARγ = assay: as above; assay type: cell-based, human
Description: as §1, §2, §3, §4, §5, §6, §7

RXRβ = assay: as above; assay type: cell-based, human
Description: as §1, §2, §3, §4, §5, §6, §7

RARα = assay: as above; assay type: cell-based, human
Description: as §1, §2, §3, §4, §5, §6, §7

RXRγ = assay: as above; assay type: cell-based, human
Description: as §1, §2, §3, §4, §5, §6, §7

## CC1=C(/C=C/C(C)=C/C=C/C(C)=C/C=C/C=C(C)/C=C/C=C(C)/C=C/C2=C(C)CCCC2(C)C)C(C)(C)CCC1 [β-carotene, All-E-β-carotene]
TIMP-1
  TIMP-1 protein level: not significantly influenced
photosensitization
  symptoms of photosensitization: alleviated the symptoms of photosensitization
RXRα
  basal or UVA-regulated expression level of RXRα: no significant effect
RXRα; D2O, UVA/βC 0.5 μM
  RXRα fold induction: 0.68 fold
RXRα; D2O, UVA/βC 1.5 μM
  RXRα fold induction: 0.31 fold
RXRα; D2O, UVA/βC 3 μM
  RXRα fold induction: 0.38 fold
RXRα; D2O, βC 0.5 μM
  RXRα fold induction: 1.25 fold
RXRα; D2O, βC 1.5 μM
  RXRα fold induction: 0.82 fold
RXRα; D2O, βC 3 μM
  RXRα fold induction: 1.06 fold
RXRα; H2O, UVA/βC 0.5 μM
  RXRα fold induction: 0.96 fold
RXRα; H2O, UVA/βC 1.5 μM
  RXRα fold induction: 0.27 fold
RXRα; H2O, UVA/βC 3 μM
  RXRα fold induction: 0.58 fold
RXRα; H2O, βC 0.5 μM
  RXRα fold induction: 0.89 fold
RXRα; H2O, βC 1.5 μM
  RXRα fold induction: 0.98 fold
RXRα; H2O, βC 3 μM
  RXRα fold induction: 1.13 fold
RARγ
  basal or UVA-regulated expression level of RARγ: no significant effect
RARγ; D2O, UVA/βC 0.5 μM
  RARγ fold induction: 0.63 fold
RARγ; D2O, UVA/βC 1.5 μM
  RARγ fold induction: 0.67 fold
RARγ; D2O, UVA/βC 3 μM
  RARγ fold induction: 0.76 fold
RARγ; D2O, βC 0.5 μM
  RARγ fold induction: 0.94 fold
RARγ; D2O, βC 1.5 μM
  RARγ fold induction: 1.11 fold
RARγ; D2O, βC 3 μM
  RARγ fold induction: 1.12 fold
RARγ; H2O, UVA/βC 0.5 μM
  RARγ fold induction: 0.85 fold
RARγ; H2O, UVA/βC 1.5 μM
  RARγ fold induction: 0.15 fold
RARγ; H2O, UVA/βC 3 μM
  RARγ fold induction: 0.54 fold
RARγ; H2O, βC 0.5 μM
  RARγ fold induction: 0.74 fold
RARγ; H2O, βC 1.5 μM
  RARγ fold induction: 0.86 fold
RARγ; H2O, βC 3 μM
  RARγ fold induction: 0.90 fold
RXRβ
  basal or UVA-regulated expression level of RXRβ: no significant effect
RXRβ; D2O, UVA/βC 0.5 μM
  RXRβ fold induction: 1.23 fold
RXRβ; D2O, UVA/βC 1.5 μM
  RXRβ fold induction: 1.09 fold
RXRβ; D2O, UVA/βC 3 μM
  RXRβ fold induction: 0.76 fold
RXRβ; D2O, βC 0.5 μM
  RXRβ fold induction: 1.32 fold
RXRβ; D2O, βC 1.5 μM
  RXRβ fold induction: 1.17 fold
RXRβ; D2O, βC 3 μM
  RXRβ fold induction: 1.61 fold
RXRβ; H2O, UVA/βC 0.5 μM
  RXRβ fold induction: 0.93 fold
RXRβ; H2O, UVA/βC 1.5 μM
  RXRβ fold induction: 0.71 fold
RXRβ; H2O, UVA/βC 3 μM
  RXRβ fold induction: 1.04 fold
RXRβ; H2O, βC 0.5 μM
  RXRβ fold induction: 0.67 fold
RXRβ; H2O, βC 1.5 μM
  RXRβ fold induction: 0.99 fold
RXRβ; H2O, βC 3 μM
  RXRβ fold induction: 0.99 fold
RARα
  basal or UVA-regulated expression level of RARα: no significant effect
RARα; D2O, UVA/βC 0.5 μM
  RARα fold induction: 1.06 fold
RARα; D2O, UVA/βC 1.5 μM
  RARα fold induction: 1.21 fold
RARα; D2O, UVA/βC 3 μM
  RARα fold induction: 0.52 fold
RARα; D2O, βC 0.5 μM
  RARα fold induction: 1.01 fold
RARα; D2O, βC 1.5 μM
  RARα fold induction: 1.02 fold
RARα; D2O, βC 3 μM
  RARα fold induction: 1.18 fold
RARα; H2O, UVA/βC 0.5 μM
  RARα fold induction: 1.45 fold
RARα; H2O, UVA/βC 1.5 μM
  RARα fold induction: 0.47 fold
RARα; H2O, UVA/βC 3 μM
  RARα fold induction: 0.71 fold
RARα; H2O, βC 0.5 μM
  RARα fold induction: 0.56 fold
RARα; H2O, βC 1.5 μM
  RARα fold induction: 0.67 fold
RARα; H2O, βC 3 μM
  RARα fold induction: 0.55 fold
RXRγ
  basal or UVA-regulated expression level of RXRγ: no significant effect
RXRγ; D2O, UVA/βC 0.5 μM
  RXRγ fold induction: 1.72 fold
RXRγ; D2O, UVA/βC 1.5 μM
  RXRγ fold induction: 2.70 fold
RXRγ; D2O, UVA/βC 3 μM
  RXRγ fold induction: 1.57 fold
RXRγ; D2O, βC 0.5 μM
  RXRγ fold induction: 1.47 fold
RXRγ; D2O, βC 1.5 μM
  RXRγ fold induction: 2.78 fold
RXRγ; D2O, βC 3 μM
  RXRγ fold induction: 2.57 fold
RXRγ; H2O, UVA/βC 0.5 μM
  RXRγ fold induction: 0.61 fold
RXRγ; H2O, UVA/βC 1.5 μM
  RXRγ fold induction: 0.08 fold
RXRγ; H2O, UVA/βC 3 μM
  RXRγ fold induction: 0.67 fold
RXRγ; H2O, βC 0.5 μM
  RXRγ fold induction: 0.39 fold
RXRγ; H2O, βC 1.5 μM
  RXRγ fold induction: 0.77 fold
RXRγ; H2O, βC 3 μM
  RXRγ fold induction: 0.33 fold
